# Data: patent US10266497B2 (ABIDE THERAPEUTICS, INC., priority 2017, dated 2019)
# What was measured:
# MAGL [1] = target: T1, MAGL (Mus musculus, UniProt O35678); experiment: In vitro competitive activity-based protein profiling, MAGL, mouse; details: read-out: MAGL % inh. 1 μM (mouse)
# T1 sequence (O35678 1-303): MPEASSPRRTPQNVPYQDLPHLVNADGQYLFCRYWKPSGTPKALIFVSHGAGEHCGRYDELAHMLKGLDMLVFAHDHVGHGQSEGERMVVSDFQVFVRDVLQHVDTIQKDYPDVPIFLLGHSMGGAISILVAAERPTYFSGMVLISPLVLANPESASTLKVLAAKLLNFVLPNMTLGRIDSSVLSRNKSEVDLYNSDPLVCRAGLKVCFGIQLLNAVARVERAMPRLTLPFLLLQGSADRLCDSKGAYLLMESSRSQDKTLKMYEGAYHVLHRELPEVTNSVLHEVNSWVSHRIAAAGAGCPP
# FAAH [2] = target: T2, FAAH (Homo sapiens, UniProt O00519); experiment: In vitro competitive activity-based protein profiling, FAAH, human; details: for inhibition at 1 µM: read-out: FAAH % inh. 1 μM (human)
# T2 sequence (O00519 1-579): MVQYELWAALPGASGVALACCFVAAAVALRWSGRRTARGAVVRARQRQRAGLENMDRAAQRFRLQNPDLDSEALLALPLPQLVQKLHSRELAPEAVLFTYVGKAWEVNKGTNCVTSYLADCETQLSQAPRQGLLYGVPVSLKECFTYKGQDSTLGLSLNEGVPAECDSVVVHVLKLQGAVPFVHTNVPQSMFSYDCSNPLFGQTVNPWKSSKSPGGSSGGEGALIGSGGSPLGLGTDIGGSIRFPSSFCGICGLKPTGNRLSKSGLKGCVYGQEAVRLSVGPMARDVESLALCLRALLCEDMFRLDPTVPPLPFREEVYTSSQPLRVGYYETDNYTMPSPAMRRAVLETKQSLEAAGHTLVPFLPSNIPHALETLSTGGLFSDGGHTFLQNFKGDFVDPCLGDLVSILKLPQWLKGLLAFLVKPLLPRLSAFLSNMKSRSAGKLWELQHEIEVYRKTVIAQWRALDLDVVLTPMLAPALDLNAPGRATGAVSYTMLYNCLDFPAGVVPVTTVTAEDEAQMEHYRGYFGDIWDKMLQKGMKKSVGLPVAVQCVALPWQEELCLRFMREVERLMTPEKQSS
# MAGL [3] = target: T3, MAGL (Homo sapiens, UniProt Q99685); experiment: In vitro competitive activity-based protein profiling, MAGL, human; details: for inhibition at 1 µM: read-out: MAGL % inh. 1 μM (human)
# T3 sequence (Q99685 1-303): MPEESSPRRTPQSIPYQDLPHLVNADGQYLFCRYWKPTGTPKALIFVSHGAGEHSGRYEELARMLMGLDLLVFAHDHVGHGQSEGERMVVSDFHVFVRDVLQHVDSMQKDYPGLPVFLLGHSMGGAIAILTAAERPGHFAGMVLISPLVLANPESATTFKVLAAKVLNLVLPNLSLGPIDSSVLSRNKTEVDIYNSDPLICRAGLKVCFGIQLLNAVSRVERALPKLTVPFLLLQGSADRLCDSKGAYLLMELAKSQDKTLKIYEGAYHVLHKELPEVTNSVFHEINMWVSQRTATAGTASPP
# FAAH [4] = target: T4, FAAH (Mus musculus, UniProt O08914); experiment: In vitro competitive activity-based protein profiling, FAAH, mouse; details: read-out: FAAH % inh. 1 μM (mouse)
# T4 sequence (O08914 1-579): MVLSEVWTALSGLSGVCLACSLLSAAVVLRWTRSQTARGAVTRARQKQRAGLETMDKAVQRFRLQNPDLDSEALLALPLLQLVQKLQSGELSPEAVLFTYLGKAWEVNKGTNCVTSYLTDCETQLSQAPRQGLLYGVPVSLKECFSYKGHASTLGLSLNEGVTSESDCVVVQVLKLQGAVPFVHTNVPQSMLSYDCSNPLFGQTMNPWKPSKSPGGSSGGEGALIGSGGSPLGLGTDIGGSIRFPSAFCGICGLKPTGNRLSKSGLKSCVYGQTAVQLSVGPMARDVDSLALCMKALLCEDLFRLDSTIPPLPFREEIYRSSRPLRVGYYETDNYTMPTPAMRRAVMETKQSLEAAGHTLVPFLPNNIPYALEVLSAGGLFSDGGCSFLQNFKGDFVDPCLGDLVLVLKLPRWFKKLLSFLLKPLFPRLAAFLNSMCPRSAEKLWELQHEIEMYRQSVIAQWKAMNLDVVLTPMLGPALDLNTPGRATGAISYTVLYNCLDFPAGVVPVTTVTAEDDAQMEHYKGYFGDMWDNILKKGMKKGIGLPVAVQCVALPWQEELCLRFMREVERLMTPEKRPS
Structure (SMILES),inhibition at 1 µM (MAGL [1]),inhibition at 1 µM (FAAH [2]),inhibition at 1 µM (MAGL [3]),inhibition at 1 µM (FAAH [4]),IC50 (FAAH [2]),IC50 (MAGL [3]),inhibition at 10 µM (MAGL [3]; read-out: MAGL % inh. (human) at 10 uM)
CN(Cc1ccccc1Cl)[C@H]1C[C@@H]2CN(C(=O)n3cc(Cl)c(C(N)=O)n3)C[C@@H]2C1 [Example 128],> 75%,> 75%,> 75%,> 75%,,,
"O=C(O)c1ccn(C(=O)N2CCC3(CCN(Cc4c(Cl)cccc4C(F)(F)F)C3)CC2)n1 [Example 74, 1-(2-(2-chloro-6-(trifluoromethyl)benzyl)-2,8-diazaspiro[4.5]decane-8-carbonyl)-1H-pyrazole-3-carboxylic acid]",> 75%,0 to 25%,> 75%,0 to 25%,,,
"O=C(O)c1nn(C(=O)N2CC3CN(Cc4cc(Cl)ccc4Cl)CC3C2)cc1Cl (stereo not drawn) [Example 136, 4-chloro-1-(5-(2,5-dichlorobenzyl)octa-hydropyrrolo[3,4-c]pyrrole-2-carbonyl)-1H-pyrazole-3-carboxylic acid]",> 75%,> 75%,> 75%,> 75%,100 to 1000 nM,,
O=C(O)c1ccn(C(=O)N2CCC3(CCN(Cc4cnccc4C(F)(F)F)C3)CC2)n1 [Example 127],> 75%,0 to 25%,> 75%,0 to 25%,,,
"CN(Cc1cc(Cl)ccc1C(F)(F)F)C1CCN(C(=O)n2cc(Cl)c(C(=O)O)n2)CC1 [Example 112, 4-chloro-1-(4-((5-chloro-2-(trifluoromethyl)benzyl)(methyl)amino)piperidine-1-carbonyl)-1H-pyrazole-3-carboxylic acid]",> 75%,> 75%,> 75%,> 75%,100 to 1000 nM,,
"O=C(O)c1nn(C(=O)N2CCC3(CC2)CN(Cc2cc(Cl)ccc2C(F)(F)F)C3)cc1Cl [Example 134, 4-chloro-1-(2-(5-chloro-2-(trifluoromethyl)benzyl)-2,7-diazaspiro[3.5]non-ane-7-carbonyl)-1H-pyrazole-3-carboxylic acid]",> 75%,> 75%,> 75%,50 to 75%,100 to 1000 nM,,
"Cc1cn(C(=O)N2CCC3(CC2)CN(Cc2cc(Cl)ccc2C(F)(F)F)C3)nc1C(=O)O [Example 131, 1-(2-(5-chloro-2-(trifluoromethyl)benzyl)-2,7-diazaspiro[3.5]non-ane-7-carbonyl)-4-methyl-1H-pyrazole-3-carboxylic acid]",> 75%,0 to 25%,> 75%,0 to 25%,1000 to 10000 nM,100 to 1000 nM,
"O=C(O)c1ccn(C(=O)N2CC3CN(Cc4cccc(OC(F)(F)F)c4)CC3C2)n1 (stereo not drawn) [Example 117, 1-(5-(3-(trifluoromethoxy)benzyl)octahydro-pyrrolo[3,4-c]pyrrole-2-carbonyl)-1H-pyrazole-3-carboxylic acid]",50 to 75%,0 to 25%,50 to 75%,50 to 75%,,,
"O=C(O)c1nn(C(=O)N2CC3CN(Cc4cccc(Oc5ccc(Cl)cc5)c4)CC3C2)cc1C(F)(F)F (stereo not drawn) [Example 147, 1-(5-(3-(4-chlorophenoxy)benzyl)octahydro-pyrrolo[3,4-c]pyrrole-2-carbonyl)-4-(trifluoromethyl)-1H-pyrazole-3-carboxylic acid]",0 to 25%,> 75%,> 75%,> 75%,,,
"O=C(O)c1ccn(C(=O)N2C[C@H]3C[C@H](Oc4cccc(-c5ccccc5)c4)C[C@H]3C2)n1 [Example 125, 1-(trans-5-([1,1′-biphenyl]-3-yloxy)octahydro-cyclopenta[c]pyrrole-2-carbonyl)-1H-pyrazole-3-carboxylic acid]",> 75%,> 75%,> 75%,> 75%,,,
"O=C(O)c1nn(C(=O)N2CCN(Cc3ccc(-c4nnn[nH]4)cc3C(F)(F)F)CC2)cc1Cl [Example 142, 1-(4-(4-(1H-tetrazol-5-yl)-2-(trifluoromethyl)benzyl)piperazine-1-carbonyl)-4-chloro-1H-pyrazole-3-carboxylic acid]",0 to 25%,0 to 25%,,0 to 25%,,,> 75%
"NC(=O)c1ccn(C(=O)N2CCC3(CCN(Cc4ccc(N5CCCC5)cc4C(F)(F)F)C3)CC2)n1 [Example 195, 1-(2-(4-(pyrrolidin-1-yl)-2-(trifluoromethyl)benzyl)-2,8-diazaspiro[4.5]decane-8-carbonyl)-1H-pyrazole-3-carboxamide]",0 to 25%,> 75%,> 75%,> 75%,,,

# The next lines start with the values.
inhibition at 1 µM (MAGL [1]),inhibition at 1 µM (FAAH [2]),inhibition at 1 µM (MAGL [3]),inhibition at 1 µM (FAAH [4]),IC50 (FAAH [2]),IC50 (MAGL [3]),inhibition at 10 µM (MAGL [3]; read-out: MAGL % inh. (human) at 10 uM),Structure (SMILES)
> 75%,0 to 25%,> 75%,0 to 25%,,,,"O=C(O)c1ccn(C(=O)N2CCN(Cc3ccc(C(F)(F)F)cc3N3CCN4CCC[C@H]4C3)CC2)n1 [Example 49, (S)-1-(4-(2-(hexahydropyrrolo [1,2-a]pyrazin-2(1H)-yl)-4-(trifluoromethyl)benzyl)piperazine-1-carbonyl)-1H-pyrazole-3-carboxylic acid]"
> 75%,0 to 25%,> 75%,0 to 25%,,,,"O=C(O)c1ccn(C(=O)N2CCN(Cc3cccc(-c4ncccn4)c3)CC2)n1 [Example 64, 1-(4-(3-(pyrimidin-2-yl)benzyl)piperazine-1-carbonyl)-1H-pyrazole-3-carboxylic acid]"
25 to 50%,0 to 25%,25 to 50%,0 to 25%,,,,"NC(=O)c1ccc(CN2CCN(C(=O)n3ccc(C(=O)O)n3)CC2)cc1C(F)(F)F [Example 14, 1-(4-(4-Carbamoyl-3-(trifluoromethyl)benzyl)piperazine-1-carbonyl)-1H-pyrazole-3-carboxylic Acid]"
> 75%,> 75%,> 75%,> 75%,100 to 1000 nM,,,"NC(=O)c1ccn(C(=O)N2CCN(Cc3cnccc3C(F)(F)F)CC2)n1 [Example 175, 1-(4-((4-(trifluoromethyl)pyridin-3-yl)methyl)piperazine-1-carbonyl)-1H-pyrazole-3-carboxamide]"
> 75%,> 75%,> 75%,50 to 75%,,,,"NC(=O)c1ccn(C(=O)N2CCN(Cc3ccc(C(F)(F)F)cc3N3CCCC3)CC2)n1 [Example 173, 1-(4-(2-(pyrrolidin-1-yl)-4-(trifluoromethyl)benzyl)piperazine-1-carbonyl)-1H-pyrazole-3-carboxamide]"
> 75%,0 to 25%,> 75%,0 to 25%,,,,"O=C(O)c1ccn(C(=O)N2CCC3(CCN(Cc4ccc(C(F)(F)F)c(Cl)c4)C3)CC2)n1 [Example 78, 1-(2-(3-chloro-4-(trifluoromethyl)benzyl)-2,8-diazaspiro[4.5]decane-8-carbonyl)-1H-pyrazole-3-carboxylic acid]"
